According to publication PMC11732879, “Preclinical evaluation of ^225Ac-labeled minigastrin analog DOTA-CCK-66 for Targeted Alpha Therapy” (European Journal of Nuclear Medicine and Molecular Imaging, 2024):
*1 amine or outer side, *2 acyl side, *3 side chain or, on linkers, in order; H or OH if unused. Where a SMILES comes first, the peptide text is derived from it. [ ]: non-standard residue; d: D form. The star is where a group is joined. DOTA = O=C(O)CN1CCN(CC(=O)O)CCN(CC(=O)*)CCN(CC(=O)O)CC1; d(γGlu) = O=C(O)[C@@H](CCC(=O)[*:2])N[*:1]; 1Nal = N[C@@H](Cc1cccc2ccccc12)C(=O)O; NMeNle = CCCC[C@H](NC)C(=O)O; PEG4 = NCCOCCOCCOCCOCCC(=O)O

Legend:
in vivo = experiment: in vivo; parameters: species or system 394-NOD SCID mice; conditions: 394-NOD SCID, mouse, 1.1 MBq
Procedure: Static PET/CT images of control group animals were acquired (n = 5) 1 h after injection of [^68Ga]Ga-DOTA-CCK-66 using a preclinical PET/CT scanner (Genisys 8 PET/CT; Sofie Biosciences, Dulles, VA, USA), according to a published procedure. PET image reconstruction was carried out using a maximum-likelihood expectation maximization with 60 iterations. Correction for photon attenuation of all images was performed. Acquisition parameters for CT applications were 40 kVp and […]. Acquired data were analyzed using OsiriX Imaging Software (version 3.9.3; Pixmeo SARL, Bernex, Switzerland).

AR42J tumor = experiment: Single-dose treatment study (tumor volume, survival); type: in vivo, 394-NOD SCID mice; conditions: for Tumor volume: single injection on day 0: [225Ac] 37 kBq (178 pmol), caliper, mean±SD, n=5
Procedure: AR42J cells (2 × 10^6 cells, 100 µL suspended in Matrigel) were subcutaneously inoculated into the right shoulder region of mice. When tumors reached 30 to 290 mm^3 (14 to 17 d after inoculation), […] into 3 groups (5 per group). On day 0 of the experiment mice received a single-dose injection of either [^68Ga]Ga-DOTA-CCK-66 (1.1 MBq, PET/CT imaging, control cohort), [^177Lu]Lu-DOTA-CCK-66 (37 MBq) or [^225Ac]Ac-DOTA-CCK-66 (37 kBq). Tumor volume (caliper measurements, length^2 × width/2) and body weight of all animals were subsequently monitored twice a week. Animals were sacrificed after reaching one of the end-point criteria (weight loss of more than 20%, tumor volume of more than 2,000 mm^3, ulceration of the tumor, respiratory distress, or change of behavior).

CCCC[C@@H](C(=O)N[C@@H](CC(=O)O)C(=O)N[C@@H](Cc1cccc2ccccc12)C(N)=O)N(C)C(=O)[C@H](Cc1c[nH]c2ccccc12)NC(=O)CCOCCOCCOCCOCCNC(=O)CC[C@@H](NC(=O)CN1CCN(CC(=O)O)CCN(CC(=O)O)CCN(CC(=O)O)CC1)C(=O)O [[^68Ga]Ga-DOTA-CCK-66, metal not drawn] ({DOTA-d(γGlu)-PEG4}-W[NMeNle]D[1Nal]-NH2)
SUV at 1 h (in vivo): 2.02 ± 0.77 SUV

CCCC[C@@H](C(=O)N[C@@H](CC(=O)O)C(=O)N[C@@H](Cc1cccc2ccccc12)C(N)=O)N(C)C(=O)[C@H](Cc1c[nH]c2ccccc12)NC(=O)CCOCCOCCOCCOCCNC(=O)CC[C@@H](NC(=O)CN1CCN(CC(=O)O)CCN(CC(=O)O)CCN(CC(=O)O)CC1)C(=O)O [[^225Ac]Ac-DOTA-CCK-66] [metal not drawn] ({DOTA-d(γGlu)-PEG4}-W[NMeNle]D[1Nal]-NH2)
fold increase in mean survival, 225Ac-TAT compared to 177Lu-RLT (AR42J tumor; 54 d versus 37 d, p = 0.0003): 1.5 fold
Tumor volume (AR42J tumor; day 0, [177Lu] 37 MBq (1.7 nmol), [68Ga] control cohort 1.1 MBq (29 pmol)): 150±80 mm^3
Tumor volume (AR42J tumor; day 3, [177Lu] 37 MBq (1.7 nmol), [68Ga] control cohort 1.1 MBq (29 pmol)): 170±110 mm^3
Tumor volume (AR42J tumor; day 7, [177Lu] 37 MBq (1.7 nmol), [68Ga] control cohort 1.1 MBq (29 pmol)): 130±60 mm^3
Tumor volume (AR42J tumor; day 10, [177Lu] 37 MBq (1.7 nmol), [68Ga] control cohort 1.1 MBq (29 pmol)): 100±60 mm^3
Tumor volume (AR42J tumor; day 14, [177Lu] 37 MBq (1.7 nmol)): 100±50 mm^3
Tumor volume (AR42J tumor; day 17, [177Lu] 37 MBq (1.7 nmol)): 100±50 mm^3
Tumor volume (AR42J tumor; day 21, [177Lu] 37 MBq (1.7 nmol)): 90±60 mm^3
Tumor volume (AR42J tumor; day 24, [177Lu] 37 MBq (1.7 nmol)): 130±70 mm^3
Tumor volume (AR42J tumor; day 28, [177Lu] 37 MBq (1.7 nmol)): 130±80 mm^3
Tumor volume (AR42J tumor; day 31, [177Lu] 37 MBq (1.7 nmol)): 160±90 mm^3
Tumor volume (AR42J tumor; day 35): 240±130 mm^3
Tumor volume (AR42J tumor; day 38): 470±280 mm^3
Tumor volume (AR42J tumor; day 42): 740±430 mm^3
Tumor volume (AR42J tumor; day 45): 1,040±690 mm^3
Tumor volume (AR42J tumor; day 49): 1,600±830 mm^3
Mean survival (AR42J tumor; single dose on day 0: [225Ac] 37 kBq, [177Lu] 37 MBq, [68Ga] 1.1 MBq (control group), n=5 per group): 54 ± 6 days
fold increase in mean survival versus control group (AR42J tumor; single dose: [225Ac] 37 kBq, [177Lu] 37 MBq, control 12 ± 3 d): 4.5 fold
